Measured values reported in patent US20070254891A1, “Crystalline forms of 4-(2-fluorophenyl)-6-methyl-2-(piperazin-1-yl)thieno[2,3-d]pyrimidine” (Dynogen Pharmaceuticals, Inc., priority 2006, published 2007).

Assay: Accelerated light stability study (Atlas Suntest CPS+ light box)
Type: physicochemical
Method: Purity analysis was performed on an Agilent HP1100 system equipped with a diode array detector and using Chemstation V9 software. Gradient, Reverse Phase methods (duration approximately 40 minutes) were used in a HPLC1 system. A Thermo-Electron Corporation HyPurity C18 5 um 150×4.6 mm column was used at 25° C. Test samples were made-up of 0.2 mg/ml of the compound in acetonitrile:water (1:1 v/v). 10 μl of sample was injected into the column. The flow rate through the column was 1 ml/min and the detection wavelength, bandwidth was 254,8 nm. Phase A was 0.1% phosphoric acid in water and Phase B was 0.1% phosphoric acid in acetonitrile. The mobile phase timetable is shown below in Table 2.
Accelerated Light stability experiments were conducted using an Atlas Suntest CPS+light box. The light exposure was set to 550 W/m^2 and the run time was set to 168 hours (1 week). The chamber temperature and black standard temperature (which indicates how hot the test samples will become) were set to 25° C. The actual temperature in the sample chamber was 40° C.
Form I and II were assessed using an Atlas Suntest CPS+ light box to determine the effect of their exposure to light over a period of 168 hours (1 week). The light exposure was set to 550 W/M^2. Samples were weighed into either open weighing boats covered by pyrex glass beakers, glass vials with open tops (no lid), or glass vials covered in Aluminum foil. In all instances, the material was spread out into an even, thin layer.

In the case of `Cc1cc2c(-c3ccccc3F)nc(N3CCNCC3)nc2s1.Cl` [Form II, 4-(2-fluorophenyl)-6-methyl-2-(piperazin-1-yl)thieno[2,3-d]pyrimidine hydrochloride], the “Rate of degradation relative to Form I” value (1 week at elevated light levels) is reported as “about half the rate of Form I”, the “Purity after 1 week light exposure” value (20 ml glass vial covered in Al foil with loose lid (control)) is reported as 99.9 and the “Purity after 1 week light exposure” value (20 ml glass vial, 550 W/m^2, 168 hours, hydrochloride) is reported as 90.7. For the same compound, the “HPLC purity after accelerated light study” value (one week, FIGS. 6A/6B (open weighing boats), hydrochloride) was 88.3% and the “Purity after 1 week light exposure” value (open weighing boat, 550 W/m^2, 168 hours, hydrochloride) was 88.3.
